The structures appear in SMILES notation.

The results in this text go back to patent US20100196365A1, “USE OF IMIDAZOQUINOLINES FOR THE TREATMENT OF EGFR DEPENDENT DISEASES OR DISEASES THAT HAVE ACQUIRED RESISTANCE TO AGENTS THAT TARGET EGFR FAMILY MEMBERS” (priority 2007, published 2010).

For one data set, the system named is NCI-H1975 tumors. The following applies: for in vivo effect on tumor growth: s.c. NCI-H1975 tumors, athymic mice, p.o. (FIG. 3). The protocol: Non small cell lung carcinoma cell lines with amplified EGFR, but refractory to EGFR inhibition therapy, are valuable models to test the sensitivity of PI3K inhibitors like the compounds of formula I in such genetic background. […] The in vivo antitumor activity of PI3K inhibitors like the compounds of formula I is tested against this EGFR driven and inhibitor resistant tumor model (FIG. 3).

Data set [1] relates to panel of breast tumor cell lines. Description: antiproliferative activity in a panel of breast cancer cell lines (Methylene blue viable cell detection assay). It is filed as cell-based, human. The method, then:
The indicated cell lines are incubated with increasing amount of Compound A, and effect on the proliferation assessed with a Methylene blue viable cell detection assay. The cell lines indicated with a red asterisk are the ones in which cell death is observed (i.e. for which the absorbance observed for treated cells was lower than the original inoculum).
(§1) ErB-B2 (HER2) is often overexpressed in breast and ovarian cell lines.

The next data set deals with BT474 tumors. Briefly: antitumor activity against s.c. BT474 xenografts. Type of data set: in vivo, mice. The following applies: BT474 subcutaneous xenografts, 45 mg/kg, po, once per day (FIG. 6).
From the text: as §1

The subject of the next data set is NCI-H358 cell line. Description: proliferation assay (methylene blue assay) with NCI-H358 tumor cells. It is filed as cell-based. The following applies: Homo sapiens, read-out: Growth Inhibitory 50 (GI50).
The subject of a further data set is NCI-H1975 cell line. Briefly: proliferation assay in EGFR inhibitor resistant NCI-H1975 cell line. It is filed as cell-based. The conditions noted are these: Homo sapiens; NCI-H1975 cell line (HER1 T790M).

For `C#Cc1cccc(Nc2ncnc3cc(OCCOC)c(OCCOC)cc23)c1` [erlotinib, reference compound], the “in vivo effect on tumor growth” value in the data set with NCI-H1975 tumors was “no significant inhibition on tumor growth”.

By GI50 is commonly meant the concentration giving 50% growth inhibition. With `Cn1c(=O)n(-c2ccc(C(C)(C)C#N)cc2)c2c3cc(-c4cnc5ccccc5c4)ccc3ncc21` [Compound A, 2-methyl-2-[4-(3-methyl-2-oxo-8-quinolin-3-yl-2,3-dihydro-imidazo[4,5-c]quinolin-1-yl)-phenyl]-propionitrile], in the data set with NCI-H1975 tumors (mouse, in vivo), the “tolerability (body weight, control vs treatment groups)” value is recorded as “well tolerated”. Further, the “in vivo effect on tumor growth” value in the data set on NCI-H1975 tumors is reported as “causes in vivo tumor growth inhibition”. Besides, the GI50 in data set [1] (Homo sapiens, panel of breast tumor cell lines containing or not ErbB2 amplification, read-out: median GI50) turned out to be 11.1 nM; in the data set on NCI-H358 cell line, 31 nM; with NCI-H1975 cell line, 11.4 nM. Moreover, in data set [1] (cell lines that overexpressed ErbB2 (FIG. 5)), the cell death result was “induces cell death”. Moreover, the “in vivo antitumor effect” value with BT474 tumors is “tumor regression”.

On to `CCN1CCN(Cc2ccc(-c3cc4c(N[C@H](C)c5ccccc5)ncnc4[nH]3)cc2)CC1` [NVP-AEE788, reference compound], for which, in the data set with NCI-H1975 tumors, the “in vivo effect on tumor growth” value is on record as “no significant inhibition on tumor growth”.
